Data taken from patent publication US6350729B1, “Inhibition of nitric oxide-mediated hypotension and septic shock with iron-containing hemoprotein” (Board of Regents, The University of Texas System, priority 1992, dated 2002).
Read-outs that look alike come from different tables or passages of the source.

Key:
blood pressure [1] = settings: guinea pigs; cited from earlier work
blood pressure [2] = settings: rabbits; cited from earlier work
[3] = system: endotoxin-induced hypotension; assay: Endotoxin-induced hypotension in anesthetized dog, mean arterial blood pressure; type: in vivo
Experimental: Experiments were carried out on conditioned mongrel dogs weighing 23-28 kg. Animal care was in accordance with the recommendations of the American Association for Accreditation of Laboratory Animal Care and met all standards prescribed by the Guide for the Care and Use of Laboratory Animals (Committee on Care and Use of Laboratory Animals (1978) Guide for the Care and Use of Laboratory Animals (Natl. Inst. Health, Bethesda, Md.) DHEW Publ. No. (NIH) 78-83.
The dog was fasted overnight before the day of the experiment and was anesthetized with pentobarbital (25 mg/kg, i.v.), orotracheally intubated and ventilated with a Harvard pump at a nominal rate of 12 breaths per minute and a tidal volume of 15 ml/kg. The dog was instrumented with a cordis for the introduction of a Swan-ganz catheter for measurement of central venous and pulmonary arterial pressures as well as an arterial line for continuous blood pressure monitoring via a computer driven analog to digital processor.
After the blood pressure and heart rate was stabilized, endotoxin was administered to the dog as a bolus injection (50 μg/kg, i.v. in 10 ml DPBS. After the onset of hypotension, a rapid infusion of 50 ml hemoglobin (5.0 g commercially available bovine hemoglobin/100 ml) over 20 seconds was administered by a central venous catheter. Cardiovascular changes were monitored for an additional 12 hrs. after hemoglobin administration.
A tracing depicting endotoxin-induced hypotension, its inhibition by hemoglobin, and subsequent administration of bovine serum albumin (5 grams) is shown in FIG. 1. Mean arterial blood pressure declined from 160 mm Hg to 70 mm Hg two hours after endotoxin administration. The hemoglobin (HgB) was subsequently administered as an intravenous bolus. […] This effect lasted approximately 45 minutes before the blood pressure decline resumed. […] On repetition of this experiment, substantially the same results were obtained.

rabbit aortic rings = settings: cited from earlier work
[4] = Kinetic 96-well microplate assay, capture of NO by Fe2+-myoglobin; type: biochemical; settings: 5 μM Mb, endothelial cell cytosol, 500 μM L-arginine, 500 μM NADPH, 80 mM TRIS pH 7.6, 25° C.
Experimental: Nitric oxide formation by endothelial cell cytosol was measured by a novel kinetic 96-well microplate assay. The assay is based on the capture of NO by Fe^2+-myoglobin (Mb) which is subsequently oxidized to Fe^3+-myoglobin. The process of heme oxidation was continuously measured in a kinetic microplate reader (Molecular Devices, Menlo Park Calif.) as the rate of change in OD405-OD650. Data points were collected from all 96 wells every 16 sec. for 30 minutes at 25° C. with shaking prior to each OD measurement. The slope of the best fit regression line (OD/min) was used to calculate the rate of NO-synthesis. OD/min measurements were converted to pmoles NO/min by dividing by the increase in OD405-OD650 measured upon complete oxidation of 1 pmole of reduced Mb with a 10-fold molar excess of potassium ferricyanide. Under the conditions employed, the efficiency of NO capture by Mb approached 100%; neither doubling nor halving the concentration of Mb influenced the Mb oxidation rate. All samples contained 5-30 μl of endothelial cell cytosol (1-6 mg protein/ml) and final concentrations of 5 μM Mb, 500 μM L-arginine, 500 μM NADPH and 80 Mm TRIS, pH 7.6.
Fe^2+-Myoglobin Preparation: 2 mM myoglobin (from horse skeletal muscle, Sigma) was reduced with a sodium dithionite and immediately applied to a Sephadex G-25 column, followed by elution with 50 Mm TRIS buffer, Ph 7.6. […]

CNC(=N)NCCC[C@H](N)C(=O)O [N^G-methyl-L-arginine]
effect on blood pressure (blood pressure [1]): increase blood pressure
effect on blood pressure (blood pressure [2]): increase blood pressure

bovine serum albumin: bovine serum albumin (5 grams) given as protein comparison after hemoglobin [reference compound]
subsequent blood pressure decline ([3]; endotoxin-induced hypotension, 5 grams given after the hemoglobin effect ended): only slightly influenced

hemoglobin: commercially available bovine hemoglobin, 5.0 g/100 ml, iron hemoprotein given intravenously
endothelium-dependent relaxation induced by acetylcholine or by A23187 (rabbit aortic rings; 1 μM): reduced
endothelium-dependent relaxation induced by acetylcholine or by A23187 (rabbit aortic rings; 10 μM): abolished
endotoxin-induced mean arterial decline (FIG. 1) ([3]; FIG. 1 legend): interrupted
duration of effect before the blood pressure decline resumed ([3]; endotoxin 50 μg/kg i.v., 50 ml of 5.0 g/100 ml bovine hemoglobin over 20 seconds): approximately 45 minutes
blood pressure drop ([3]; endotoxin 50 μg/kg i.v., intravenous bolus after mean arterial pressure fell from 160 to 70 mm Hg at two hours): abrogated
hypotension ([3]; endotoxin 50 μg/kg i.v., intravenous bolus after onset of hypotension): partially reversed

B1: Mb: myoglobin from horse skeletal muscle, Sigma, reduced to Fe2+ form (protein, UniProt P68082 2-154, looked up)
Myoglobin: GLSDGEWQQVLNVWGKVEADIAGHGQEVLIRLFTGHPETLEKFDKFKHLKTEAEMKASEDLKKHGTVVLTALGGILKKKGHHEAELKPLAQSHATKHKIPIKYLEFISDAIIHVLHSKHPGDFGADAQGAMTKALELFRNDIAAKYKELGFQG
efficiency of NO capture [4]: ~100%
